Results as given in patent US7364866B2, “Drosophila G protein coupled receptors, nucleic acids, and methods related to the same” (Pharmacia & Upjohn Company, priority 1999, dated 2008).
Read-outs that look alike come from different tables or passages of the source. Residues, ends and D or L forms follow the SMILES beside them.

Experiments:
[1] = system: CHO cells stably transfected with a DmGPCR expression vector; test: Intracellular calcium measurement using FLIPR, positive controls; format: cell-based, Chinese hamster; conditions: positive controls: A23187 10 μM, ATP 4 μM
Experimental: (§1) Changes in intracellular calcium levels are another recognized indicator of G protein-coupled receptor activity, and such assays can be employed to screen for modulators of DmGPCR activity. For example, CHO cells stably transfected with a DmGPCR expression vector are plated at a density of 4×10^4 cells/well in Packard black-walled, 96-well plates specially designed to discriminate fluorescence signals emanating from the various wells on the plate. The cells are incubated for 60 minutes at 37° C. in modified Dulbecco's PBS (D-PBS) containing 36 mg/L pyruvate and 1 g/L glucose and one of four calcium indicator dyes (Fluo-3™ AM, Fluo-4™ AM, Calcium Green™-1 AM, or Oregon Green™ 488 BAPTA-1 AM), each at a concentration of 4 μM. […]
(§2) A calcium response is initiated by the addition of one or more candidate receptor agonist compounds, calcium ionophore A23187 (10 μM; positive control), or ATP (4 μM; positive control). Fluorescence is measured by Molecular Device's FLIPR with an argon laser (excitation at 488 nm). […] Basal fluorescence of cells was measured for 20 seconds prior to addition of candidate agonist, ATP, or A23187, and the basal fluorescence level was subtracted from the response signal. The calcium signal is measured for approximately 200 seconds, taking readings every two seconds. […]

DmGPCR1 = test: Ca+2 mobilization assay (FLIPR), transfected CHO cells; format: cell-based, Drosophila melanogaster
Experimental: as §1, §2

DmGPCR8 [2] = test: [35S]GTPγS binding assay, dose response; format: biochemical, Drosophila melanogaster; conditions: DmGPCR8 in CHO-10001A cells; given in words
Experimental: The transfected cells were washed once with ice-cold Dulbecco's phosphate buffered saline (PBS), 5 ml per 10 cm plate, and scraped into 5 ml of the same buffer. Cell suspensions from multiple plates were combined and centrifuged at 500×g for 10 min at 4° C. The cell pellet was reconstituted in ice-cold TEE (25 mM TRIS, 5 mM EGTA, 5 mM EDTA). Convenient aliquots were snap-frozen in liquid nitrogen and stored at −70° C. After thawing, the cells were homogenized and centrifuged at 4° C., 500×g for 5 minutes to pellet nuclei and unbroken cells. The supernatant was centrifuged at 47,000×g for 30 minutes at 4° C. […] Membrane protein concentration was determined using the BCA Protein Assay Reagent from Pierce (Rockford, Ill.) and BSA as standard. […]
Ligand-induced stimulation of [^35S]GTPγS binding was expressed as fold increase over the basal activity with no ligand added. Each treatment was run either in triplicate, or, on occasion, in duplicate, and the binding (cpm) was calculated as means +/− standard deviations. Dose-response curves for the receptor/ligand systems were analyzed using a non-linear least square SAS model, y=Bmax X/(Kd+X). Other dose-response curves were analyzed using Prism (GraphPad Software, Inc. San Diego, Calif.) and the following equation y=Bottom+(Top−Bottom)/(1+10^LogEC50-X). […]

DmGPCR8 [3] = test: direct calcium mobilization assay (FLIPR); format: cell-based, Drosophila melanogaster; conditions: DmGPCR8 without chimeric G-protein
Experimental: as §1, §2

[4] = system: DmGPCR8 and chimeric G-proteins; test: calcium mobilization (FLIPR) in CHO-10001A cells co-transfected with chimeric G-proteins; format: cell-based, Drosophila melanogaster; conditions: for EC50: read-out: EC50, calcium releasing activity
Experimental: Changes in intracellular calcium levels are another recognized indicator of G protein-coupled receptor activity, and such assays can be employed to screen for modulators of DmGPCR activity. For example, CHO cells stably transfected with a DmGPCR expression vector are plated at a density of 4×10^4 cells/well in Packard black-walled, 96-well plates specially designed to discriminate fluorescence signals emanating from the various wells on the plate. The cells are incubated for 60 minutes at 37° C. in modified Dulbecco's PBS (D-PBS) containing 36 mg/L pyruvate and 1 g/L glucose and one of four calcium indicator dyes (Fluo-3™ AM, Fluo-4™ AM, Calcium Green™-1 AM, or Oregon Green™ 488 BAPTA-1 AM), each at a concentration of 4 μM. Plates are washed once with modified D-PBS and incubated for 10 minutes at 37° C. to remove residual dye from the cellular membrane. In addition, a series of washes with modified D-PBS is performed immediately prior to activation of the calcium response.
A calcium response is initiated by the addition of one or more candidate receptor agonist compounds, calcium ionophore A23187 (10 μM; positive control), or ATP (4 μM; positive control). Fluorescence is measured by Molecular Device's FLIPR with an argon laser (excitation at 488 nm). (See, e.g., Kuntzweiler et al., Drug Dev. Res., 1998, 44(1), 14-20). The F-stop for the detector camera was set at 2.5, and the length of exposure was 0.4 milliseconds. Basal fluorescence of cells was measured for 20 seconds prior to addition of candidate agonist, ATP, or A23187, and the basal fluorescence level was subtracted from the response signal. The calcium signal is measured for approximately 200 seconds, taking readings every two seconds. Calcium ionophore A23187 and ATP increase the calcium signal 200% above baseline levels. In general, activated GPCRs increase the calcium signal approximately 10-15% above baseline signal.
Originally, we have chosen the GTPγS assay as a functional assay because agonist-driven stimulation of GTPγS reflects early events in the DmGPCR activation cascade, regardless of further activation pathways of various down-stream signaling events. This appears especially useful for the assessment of possible activation of orphan DmGPCRs with unknown functions and unknown signaling pathways. […] Since the GTPγS assay is known to poorly recognize GPCRs coupled to the Gq class of G-proteins, a Ca^+2 mobilization assay based on a FLIPR readout was used as well to evaluate Gq-coupled orphan GPCRs in CHO cells transiently transfected with DNA encoding Drosophila GPCRs.

muscle contraction = conditions: cited from earlier work
DmGPCR5 [5] = biological target: T1, DmGPCR5 (Drosophila melanogaster, UniProt P30975, L70Q); test: biochemical; set-up: expressed in transfected cells; host or cells: CHO-1000A (so in the source), transient; conditions: for maximal stimulation of GTPγS binding above basal level: dose-response
T1 sequence (P30975 whole entry L70Q): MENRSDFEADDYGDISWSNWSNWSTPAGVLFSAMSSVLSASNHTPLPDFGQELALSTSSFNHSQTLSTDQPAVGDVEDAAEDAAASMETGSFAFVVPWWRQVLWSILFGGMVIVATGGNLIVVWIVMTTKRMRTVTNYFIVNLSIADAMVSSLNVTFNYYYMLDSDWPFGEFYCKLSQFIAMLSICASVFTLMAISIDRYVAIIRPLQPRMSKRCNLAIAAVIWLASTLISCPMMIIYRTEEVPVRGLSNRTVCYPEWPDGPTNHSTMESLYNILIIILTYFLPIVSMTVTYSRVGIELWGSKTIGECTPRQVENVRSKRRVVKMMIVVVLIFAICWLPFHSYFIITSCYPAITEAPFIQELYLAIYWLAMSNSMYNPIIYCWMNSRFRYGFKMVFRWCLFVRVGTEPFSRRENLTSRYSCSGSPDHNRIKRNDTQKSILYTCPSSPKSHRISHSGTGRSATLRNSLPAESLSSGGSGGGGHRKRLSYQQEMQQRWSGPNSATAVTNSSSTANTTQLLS
Experimental: The transfected cells were washed once with ice-cold Dulbecco's phosphate buffered saline (PBS), 5 ml per 10 cm plate, and scraped into 5 ml of the same buffer. Cell suspensions from multiple plates were combined and centrifuged at 500×g for 10 min at 4° C. The cell pellet was reconstituted in ice-cold TEE (25 mM TRIS, 5 mM EGTA, 5 mM EDTA). Convenient aliquots were snap-frozen in liquid nitrogen and stored at −70° C. After thawing, the cells were homogenized and centrifuged at 4° C., 500×g for 5 minutes to pellet nuclei and unbroken cells. The supernatant was centrifuged at 47,000×g for 30 minutes at 4° C. The membrane pellet was washed once with TEE, resuspended in 20 mM HEPES, pH 7.4, 100 mM NaCl, 10 mM MgCl2, 1 mM EDTA (assay buffer), aliquoted and frozen in liquid nitrogen. Membrane aliquots were stored at −70° C. Membrane protein concentration was determined using the BCA Protein Assay Reagent from Pierce (Rockford, Ill.) and BSA as standard.
Initially, reaction mixtures were prepared in 96-well polypropylene plates (Nunc). In each well, peptide aqueous solution (20 μl, 10×), or water controls (20 μl), 18.2 μM GDP in assay buffer (0.11 ml, 10 μM final), and membranes suspended in assay buffer (50 μl, 10 μg membrane protein) were mixed and placed on ice. […] Then the membranes were washed 3 times with 0.25 ml ice-cold wash buffer/well (10 mM HEPES, 10 mM MgCl2, pH 7.4) and vacuum filtered. […] Each treatment was carried out in triplicates.
Ligand-induced stimulation of [^35S]GTPγS binding was expressed as fold increase over the basal activity with no ligand added. Each treatment was run either in triplicate, or, on occasion, in duplicate, and the binding (cpm) was calculated as means +/− standard deviations. Dose-response curves for the receptor/ligand systems were analyzed using a non-linear least square SAS model, y=Bmax X/(Kd+X). Other dose-response curves were analyzed using Prism (GraphPad Software, Inc. San Diego, Calif.) and the following equation y=Bottom+(Top−Bottom)/(1+10^LogEC50-X).
Originally, we have chosen the GTPγS assay as a functional assay because agonist-driven stimulation of GTPγS reflects early events in the DmGPCR activation cascade, regardless of further activation pathways of various down-stream signaling events. This appears especially useful for the assessment of possible activation of orphan DmGPCRs with unknown functions and unknown signaling pathways. The GTPγS assay was carried out with membranes prepared from CHO cells transiently transfected with DNA encoding Drosophila GPCRs using a 96-well MultiScreen G/FB filter plates and a MultiScreen vacuum manifold (Millipore) for filtration. Since the GTPγS assay is known to poorly recognize GPCRs coupled to the Gq class of G-proteins, a Ca^+2 mobilization assay based on a FLIPR readout was used as well to evaluate Gq-coupled orphan GPCRs in CHO cells transiently transfected with DNA encoding Drosophila GPCRs.

DmGPCR5 [6] = biological target: T1, DmGPCR5; test: cell-based
Excerpt: The photoprotein luciferase provides another useful tool for assaying for modulators of DmGPCR activity. Cells (e.g., CHO cells or COS7 cells) are transiently co-transfected with both a DmGPCR expression construct (e.g., DmGPCR in pzeoSV2) and a reporter construct which includes a gene for the luciferase protein downstream from a transcription factor binding site, such as the cAMP-response element (CRE), AP-1, or NF-kappa B. Agonist binding to receptors coupled to the Gs subtype of G proteins leads to increases in cAMP, thereby activating the CRE transcription factor and resulting in expression of the luciferase gene. […] Luciferase activity may be quantitatively measured using, e.g., luciferase assay reagents that are commercially available from Promega (Madison, Wis.).
In one exemplary assay, CHO cells are plated in 24-well culture dishes at a density of 100,000 cells/well one day prior to transfection and cultured at 37° C. in MEM (Gibco/BRL) supplemented with 10% fetal bovine serum, 2 mM glutamine, 10 μg/ml penicillin, and 10 μg/ml streptomycin. […] After incubation for 15 minutes at room temperature, 15 μl of the lysate is mixed with 50 μl of substrate solution (Promega) in an opaque-white, 96-well plate, and the luminescence is read immediately on a Wallace model 1450 MicroBeta scintillation and luminescence counter (Wallace Instruments, Gaithersburg, Md.). […]

For `CNc1ccc2oc(C[C@H]3O[C@@]4(CC[C@H]3C)O[C@H]([C@H](C)C(=O)c3ccc[nH]3)[C@H](C)C[C@H]4C)nc2c1C(=O)O` [A23187], the “increase of the calcium signal above baseline levels” value [1] was 200%.
For `CC(C)C[C@H](NC(=O)[C@H](CCCNC(=N)N)NC(=O)[C@H](CC(C)C)NC(=O)[C@H](CCC(N)=O)NC(=O)[C@@H]1CCCN1C(=O)CNC(=O)[C@H](CCCNC(=N)N)NC(=O)[C@H](C)N)C(=O)N[C@@H](CCCNC(=N)N)C(=O)N[C@@H](Cc1ccccc1)C(N)=O` [ARGPQLRLRF-NH2] (H-ARGPQLRLRF-NH2; N-terminus assumed), the EC50 (DmGPCR1) was 0.1 to 0.2 µM.
With `Nc1ncnc2c1ncn2[C@@H]1O[C@H](COP(=O)(O)OP(=O)(O)OP(=O)(O)O)[C@@H](O)[C@H]1O` [ATP] the “increase of the calcium signal above baseline levels” value [1] was 200%.
With `CC[C@H](C)[C@@H]1NC(=O)[C@@H]2CCCN2C(=O)[C@H](CC(N)=O)NC(=O)[C@H](Cc2ccccc2)NC(=O)[C@H](Cc2ccc(O)cc2)NC(=O)[C@@H](NC(=O)[C@H](CCC(N)=O)NC(=O)[C@H](CCCNC(=N)N)NC(=O)[C@H](Cc2ccc(O)cc2)NC(=O)[C@H](CCCNC(=N)N)NC(=O)[C@@H](NC(=O)[C@@H]2CCC(=O)N2)C(C)C)CSSC[C@@H](C(=O)N[C@@H](Cc2ccccc2)C(=O)O)NC(=O)[C@H](CO)NC1=O` [DST-C, pGlu-Val-Arg-Tyr-Gln-Cys-Tyr-Phe-Asn-Pro-Ile-Ser-Cys-Phe-OH] the “EC50, GTPγS-binding responses” value (DmGPCR8 [2]) was “low nanomolar range”, the “activity in direct calcium mobilization assay (FLIPR)” value (DmGPCR8 [3]) was “did not show any activity” and the EC50 ([4]; co-transfected with DmGPCR8 and Gqi5) was ~0.03 µM. The EC50 ([4]; co-transfected with DmGPCR8 and Gqo5) was ~0.03 µM, the calcium mobilization ([4]; co-transfected with DmGPCR8 and Gqs5) was “no calcium mobilization was observed” and the EC50 ([4]; co-transfected with DmGPCR8 and Gqz5) was 0.244 µM. For the same compound, the “inhibition of muscle contraction” value (muscle contraction) was “potent and prolonged inhibition”.
`CC[C@H](C)[C@H](NC(=O)[C@H](Cc1ccccc1)NC(=O)[C@H](CO)NC(=O)[C@H](CO)NC(=O)[C@@H](NC(=O)[C@@H]1CCCN1C(=O)[C@H](C)N)[C@@H](C)O)C(=O)NCC(=O)N[C@@H](CCSC)C(=O)N[C@@H](CCCNC(=N)N)C(N)=O` [DTK-1, APTSSFIGMR-NH2] (H-APTSSFIGMR-NH2) gave an EC50 (DmGPCR5 [5]) of 0.25 to 0.5 µM.
For `CC(C)C[C@H](NC(=O)CNC(=O)[C@H](Cc1ccc(O)cc1)NC(=O)[C@H](Cc1ccccc1)NC(=O)[C@H](C)NC(=O)[C@H](CC(C)C)NC(=O)[C@@H]1CCCN1C(=O)[C@H](C)N)C(=O)N[C@@H](CCCNC(=N)N)C(N)=O` [DTK-2, APLAFYGLR-NH2] (H-APLAFYGLR-NH2), the EC50 (DmGPCR5 [6]) was 1.06 µM and the “EC50, stimulation of GTPγS binding” value (DmGPCR5 [5]; DmGPCR5, given in words) was “low micromolar range”.
Compound `CSCC[C@H](NC(=O)CNC(=O)[C@@H](NC(=O)[C@H](Cc1ccccc1)NC(=O)CNC(=O)[C@@H](NC(=O)[C@@H]1CCCN1C(=O)[C@H](C)N)[C@@H](C)O)[C@@H](C)O)C(=O)N[C@@H](CCCNC(=N)N)C(N)=O` [DTK-3, APTGFTGMR-NH2] (H-APTGFTGMR-NH2) has an EC50 (DmGPCR5 [5]) of 0.25 to 0.5 µM.
In the case of `CSCC[C@H](NC(=O)CNC(=O)[C@H](CC(C)C)NC(=O)[C@H](Cc1ccccc1)NC(=O)CNC(=O)[C@H](CC(N)=O)NC(=O)[C@@H]1CCCN1C(=O)[C@H](C)N)C(=O)N[C@@H](CCCNC(=N)N)C(N)=O` [DTK-5, APNGFLGMR-NH2] (H-APNGFLGMR-NH2), the EC50 (DmGPCR5 [6]) is reported as 0.197 µM, the EC50 (DmGPCR5 [5]) is reported as 0.25 to 0.5 µM and the “maximal stimulation of GTPγS binding above basal level” value (DmGPCR5 [5]; DmGPCR5) is reported as “ca. 1.5 fold”.
In the case of `CSCC[C@H](NC(=O)CNC(=O)[C@H](Cc1ccc(O)cc1)NC(=O)[C@H](Cc1ccccc1)NC(=O)[C@H](C)NC(=O)[C@H](CC(C)C)NC(=O)[C@@H]1CCCN1C(=O)[C@H](C)N)C(=O)N[C@@H](CCCNC(=N)N)C(N)=O` [Met8-DTK-2, APLAFYGMR-NH2] (H-APLAFYGMR-NH2), the “maximal stimulation of GTPγS binding above basal level” value (DmGPCR5 [5]; DmGPCR5) is reported as “ca. 1.5 fold”.
